Laboratory results as given in patent US20200172549A1, “NOVEL CHLORIN E6-CURCUMIN DERIVATIVES, PREPARATION METHOD THEREOF, AND PHARMACEUTICAL COMPOSITION CONTAINING THE SAME FOR TREATMENT OF CANCER” (DONG SUNG PHARM. CO., LTD., priority 2017, published 2020).

Key:
[1] = Dark cytotoxicity, MTT assay, MIA-PaCa-2; format: cell-based; settings: human, MIA-PaCa-2 cells, 3 h, no light, 72 h incubation, read-out: Cell viability, Dark cytotoxicity against MIA-PaCa-2; for viability at 3.12 μM: 3.12 μM photosensitizer; for viability at 6.25 μM: 6.25 μM photosensitizer; for viability at 12.5 μM: 12.5 μM photosensitizer; for viability at 25 μM: 25 μM photosensitizer; for viability at 50 μM: 50 μM photosensitizer
Protocol: (§1) Dark cytotoxicity: The culture of AsPC-1 pancreatic cancer cells were grown in RPMI-1640 medium (life technologies corporation, USA) supplemented with 10% heat-inactivated fetal bovine serum (life technologies corporation, USA) and 1 penicillin (life technologies corporation, USA), whereas MIA-paca2 and PANC-1 cells were grown in DMEM. The MTT assay was used to assess the cell viability of AsPC-1, MIA-paca2, PANC-1 cells. The cells attached to a 96-well plate (5,000 cells/well) were treated with 3.125 μM, 6.25 μM, 12.5 μM, 25 μM, 50 μM of photosensitizers, 7, 10, 13, 16, and 3 for 3 h. The cells were then incubated for 72 h at 37° C. in a 5% CO2 incubator and exposed to MTT [3-(4,5-dimethylthiazol-2-yl)-2,5-diphenyl-tetrazolium bromide] (250 μg/ml) for 3 h. The solution was changed to 200 μl of dimethylsulfoxide (DMSO, Sigma). After 30 min incubation and shaking in microplate mixer, the optical density (OD) was measured using a microplate reader (Thermo Fisher scientific, USA) at 570 nm wavelength. The cell viability was calculated using the following formula: Cell viability (%)=Mean optical density of treated wells/Mean optical density of control wells×100.

[2] = system: AsPC-1 pancreatic cancer cells; assay: Phototoxicity (PDT), MTT assay, AsPC-1; format: cell-based; settings: for Cell viability, Phototoxicity against AsPC-1: 3 h, 50 mW 0.09 J/cm^2 laser 100 sec, 72 h incubation
Protocol: as §1, with “Phototoxicity: The culture” for “Dark cytotoxicity: The culture”, “USA) and 1% penicillin (life” for “USA) and 1 penicillin (life”, “3 h. The photosensitized cells were then irradiated with a 50 mW, 0.09 J/cm^2 laser for 100 sec. The cells” for “3 h. The cells”

PANC-1 = assay: Phototoxicity (PDT), MTT assay, PANC-1; format: cell-based; settings: for Cell viability, Phototoxicity against PANC-1: 3 h, 50 mW 0.09 J/cm^2 laser 100 sec, 72 h incubation
Protocol: as §1, with “Phototoxicity: The culture” for “Dark cytotoxicity: The culture”, “USA) and 1% penicillin (life” for “USA) and 1 penicillin (life”, “3 h. The photosensitized cells were then irradiated with a 50 mW, 0.09 J/cm^2 laser for 100 sec. The cells” for “3 h. The cells”

[3] = Dark cytotoxicity, MTT assay, AsPC-1; format: cell-based; settings: human, AsPC-1 pancreatic cancer cells, 3 h, no light, 72 h incubation, read-out: Cell viability, Dark Cytotoxicity against AsPC-1; for viability at 3.12 μM: 3.12 μM photosensitizer; for viability at 6.25 μM: 6.25 μM photosensitizer; for viability at 12.5 μM: 12.5 μM photosensitizer; for viability at 25 μM: 25 μM photosensitizer; for viability at 50 μM: 50 μM photosensitizer
Protocol: as §1

MIA-PaCa-2 = assay: Phototoxicity (PDT), MTT assay, MIA-PaCa-2; format: cell-based; settings: for Cell viability, Phototoxicity against MIA-PaCa-2: 3 h, 50 mW 0.09 J/cm^2 laser 100 sec, 72 h incubation
Protocol: as §1, with “Phototoxicity: The culture” for “Dark cytotoxicity: The culture”, “USA) and 1% penicillin (life” for “USA) and 1 penicillin (life”, “3 h. The photosensitized cells were then irradiated with a 50 mW, 0.09 J/cm^2 laser for 100 sec. The cells” for “3 h. The cells”

[4] = Photophysical properties (absorption) in DMSO; format: physicochemical
Protocol: The photophysical properties of Ce6-curcumin conjugates and dimethyl ester ce6 were analyzed in dimethyl sulfoxide (DMSO). All the photosensitizers 7, 10, 13, and 16 (Formula IV) effectively absorbed the red light compared to dimethyl ester ce6. The major soret peak at λmax=405-408 nm and Q-bands at 667 nm for the photosensitizers 7, 10, 13, and 16 (Formula IV) and Q band peak at 656 for dimethyl ester ce6.

Row | Compound | viability at 3.12 μM [1] | viability at 6.25 μM [1] | viability at 12.5 μM [1] | viability at 25 μM [1] | viability at 50 μM [1] | Cell viability, Phototoxicity against AsPC-1 ([2]; 3.12 μM photosensitizer) | Cell viability, Phototoxicity against AsPC-1 ([2]; 6.25 μM photosensitizer) | Cell viability, Phototoxicity against AsPC-1 ([2]; 12.5 μM photosensitizer) | Cell viability, Phototoxicity against AsPC-1 ([2]; 25 μM photosensitizer) | Cell viability, Phototoxicity against AsPC-1 ([2]; 50 μM photosensitizer) | Cell viability, Phototoxicity against PANC-1 (PANC-1; 3.12 μM photosensitizer) | Cell viability, Phototoxicity against PANC-1 (PANC-1; 6.25 μM photosensitizer) | Cell viability, Phototoxicity against PANC-1 (PANC-1; 12.5 μM photosensitizer) | Cell viability, Phototoxicity against PANC-1 (PANC-1; 25 μM photosensitizer) | Cell viability, Phototoxicity against PANC-1 (PANC-1; 50 μM photosensitizer) | viability at 3.12 μM [3] | viability at 6.25 μM [3] | viability at 12.5 μM [3] | viability at 25 μM [3] | viability at 50 μM [3] | also measured
1 | C=Cc1c(C)c2cc3nc(c(CC(=O)O)c4[nH]c(cc5nc(cc1[nH]2)C(C)=C5CC)c(C)c4C(=O)O)[C@@H](CCC(=O)O)[C@@H]3C [Compound 3, Chlorin e6] | 98.8% | 101% | 100% | 99.6% | 100% | 91.05% | 76.65% | 66.31% | 37.32% | 17.52% | 104.37% | 82.85% | 30.03% | 8.57% | 7.61% | 98.8% | 101% | 100% | 99.6% | 100% | inhibition at 25 µM ([2]; Homo sapiens, ASPC1, 25 μM concentration, with light): 63%; inhibition at 25 µM (PANC-1; Homo sapiens, PANC-1, 25 μM concentration, with light): 91%
2 | C=Cc1c(C)c2cc3nc(c(CC(=O)OC)c4[nH]c(cc5nc(cc1[nH]2)C(C)=C5CC)c(C)c4C(=O)NCCCCCCNC(=O)CCCC(=O)Oc1ccc(/C=C/C(=O)CC(=O)/C=C/c2ccc(O)c(OC)c2)cc1OC)C(CCC(=O)OC)C3C (stereo not drawn) [Compound 10, Chlorine e6-curcumin Conjugate (10)] | 89.7% | 82% | 75.1% | 66.4% | 48.7% | 85.90% | 75.12% | 34.05% | 26.11% | 23.17% | 99.74% | 96.76% | 81.89% | 81.07% | 73.00% | 96.5% | 98.2% | 98.5% | 95% | 78.8% | Cell viability, Phototoxicity against MIA-PaCa-2 (MIA-PaCa-2; 3.12 μM photosensitizer): 94.15%; Cell viability, Phototoxicity against MIA-PaCa-2 (MIA-PaCa-2; 6.25 μM photosensitizer): 90.03%; Cell viability, Phototoxicity against MIA-PaCa-2 (MIA-PaCa-2; 12.5 μM photosensitizer): 85.20%; Cell viability, Phototoxicity against MIA-PaCa-2 (MIA-PaCa-2; 25 μM photosensitizer): 64.88%; Cell viability, Phototoxicity against MIA-PaCa-2 (MIA-PaCa-2; 50 μM photosensitizer): 48.21%; Q-band peak [4]: 667 nm
3 | C=Cc1c(C)c2cc3nc(c(CC(=O)OC)c4[nH]c(cc5nc(cc1[nH]2)C(C)=C5CC)c(C)c4C(=O)NCCOCCOCCNC(=O)CCCC(=O)Oc1ccc(/C=C/C(=O)CC(=O)/C=C/c2ccc(O)c(OC)c2)cc1OC)C(CCC(=O)OC)C3C (stereo not drawn) [Compound 13, Chlorine e6-curcumin Conjugate (13)] | 114% | 115% | 114% | 96.3% | 66.8% | 7.34% | 6.61% | 6.48% | 6.58% | 6.58% | 8.51% | 7.71% | 7.53% | 8.04% | 7.28% | 105% | 108% | 106% | 98.5% | 78.7% | Cell viability, Phototoxicity against MIA-PaCa-2 (MIA-PaCa-2; 3.12 μM photosensitizer): 4.68%; Cell viability, Phototoxicity against MIA-PaCa-2 (MIA-PaCa-2; 6.25 μM photosensitizer): 5.07%; Cell viability, Phototoxicity against MIA-PaCa-2 (MIA-PaCa-2; 12.5 μM photosensitizer): 4.93%; Cell viability, Phototoxicity against MIA-PaCa-2 (MIA-PaCa-2; 25 μM photosensitizer): 5.39%; Cell viability, Phototoxicity against MIA-PaCa-2 (MIA-PaCa-2; 50 μM photosensitizer): 5.90%; inhibition at 3 µM (MIA-PaCa-2; Homo sapiens, MIA PaCa-2, 3 μM concentration, with light): > 90%; Q-band peak [4]: 667 nm; inhibition at 3 µM ([2]; Homo sapiens, ASPC1, 3 μM concentration, with light): > 90%; inhibition at 3 µM (PANC-1; Homo sapiens, PANC-1, 3 μM concentration, with light): > 90%
4 | Dimethylester of Chlorine e6 [dimethyl ester ce6] |  |  |  |  |  |  |  |  |  |  |  |  |  |  |  |  |  |  |  |  | Q-band peak [4]: 656 nm
